The text below walks through data of ChEMBL document CHEMBL1146769, “The discovery of N-(1,3-thiazol-2-yl)pyridin-2-amines as potent inhibitors of KDR kinase” (Bioorg Med Chem Lett, 2004).

In assay [1] the target is Vascular endothelial growth factor receptor 3 (Homo sapiens) (UniProt P35916). As to the kind of experiment: Selectivity for Vascular endothelial growth factor receptor 3 over (KDR) kinase insert domain receptor.
Assay [2] addresses Vascular endothelial growth factor receptor 1 (Homo sapiens) (UniProt P17948). As to the kind of experiment: Selectivity for Vascular endothelial growth factor receptor 1 over (KDR) kinase insert domain receptor.
For assay [3], the target named is Fibroblast growth factor receptor 1 (Homo sapiens) (UniProt P11362). The assay is described as follows: Selectivity for Fibroblast growth factor receptor 1 over (KDR) kinase insert domain receptor.
The target in assay [4] is Fibroblast growth factor receptor 2 (Homo sapiens) (UniProt P21802). The assay is described as follows: Selectivity for Fibroblast growth factor receptor 2 over (KDR) kinase insert domain receptor.
In assay [5] the target is Proto-oncogene tyrosine-protein kinase Src (Homo sapiens) (UniProt P12931). As to the kind of experiment: Selectivity for Src protein tyrosine kinase over (KDR) kinase insert domain receptor.
The target in assay [6] is Vascular endothelial growth factor receptor 2 (Homo sapiens, UniProt P35968). As to the kind of experiment: Inhibitory activity towards vascular endothelial growth factor receptor 2.
For assay [7], the target named is Platelet-derived growth factor receptor beta (Homo sapiens) (UniProt P09619). The assay is described as follows: Selectivity for PDGFRbeta over (KDR) kinase insert domain receptor.
Sequence of Platelet-derived growth factor receptor beta (Homo sapiens) (P09619 whole entry, the tested form may be a part): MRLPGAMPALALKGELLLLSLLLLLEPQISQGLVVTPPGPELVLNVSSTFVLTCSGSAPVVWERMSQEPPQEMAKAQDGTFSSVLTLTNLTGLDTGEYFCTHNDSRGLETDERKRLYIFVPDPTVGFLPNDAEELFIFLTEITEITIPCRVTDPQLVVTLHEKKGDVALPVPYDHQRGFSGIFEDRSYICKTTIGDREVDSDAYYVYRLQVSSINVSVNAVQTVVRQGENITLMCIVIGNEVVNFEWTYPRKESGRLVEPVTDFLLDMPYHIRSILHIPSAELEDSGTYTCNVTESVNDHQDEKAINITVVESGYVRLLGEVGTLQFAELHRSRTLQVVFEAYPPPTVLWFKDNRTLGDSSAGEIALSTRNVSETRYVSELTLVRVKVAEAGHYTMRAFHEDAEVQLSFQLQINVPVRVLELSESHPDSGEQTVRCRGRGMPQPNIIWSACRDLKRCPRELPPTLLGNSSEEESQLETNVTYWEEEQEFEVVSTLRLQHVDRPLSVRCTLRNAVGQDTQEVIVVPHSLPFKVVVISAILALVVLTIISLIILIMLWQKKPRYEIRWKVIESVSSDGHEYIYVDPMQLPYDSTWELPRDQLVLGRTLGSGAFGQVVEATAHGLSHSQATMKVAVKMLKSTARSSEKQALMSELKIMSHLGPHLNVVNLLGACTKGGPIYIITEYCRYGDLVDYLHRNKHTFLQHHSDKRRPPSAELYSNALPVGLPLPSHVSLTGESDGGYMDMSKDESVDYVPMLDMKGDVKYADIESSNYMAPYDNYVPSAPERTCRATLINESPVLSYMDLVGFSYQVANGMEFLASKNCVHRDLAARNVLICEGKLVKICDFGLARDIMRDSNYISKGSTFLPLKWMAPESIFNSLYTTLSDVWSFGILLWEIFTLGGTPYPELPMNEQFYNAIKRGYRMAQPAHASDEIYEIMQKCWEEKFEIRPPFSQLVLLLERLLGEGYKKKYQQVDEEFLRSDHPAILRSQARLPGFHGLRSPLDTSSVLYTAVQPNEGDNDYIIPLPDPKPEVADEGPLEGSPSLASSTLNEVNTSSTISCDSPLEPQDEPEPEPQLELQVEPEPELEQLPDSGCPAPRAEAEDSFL

Sequence of Vascular endothelial growth factor receptor 2 (P35968 whole entry, the tested form may be a part): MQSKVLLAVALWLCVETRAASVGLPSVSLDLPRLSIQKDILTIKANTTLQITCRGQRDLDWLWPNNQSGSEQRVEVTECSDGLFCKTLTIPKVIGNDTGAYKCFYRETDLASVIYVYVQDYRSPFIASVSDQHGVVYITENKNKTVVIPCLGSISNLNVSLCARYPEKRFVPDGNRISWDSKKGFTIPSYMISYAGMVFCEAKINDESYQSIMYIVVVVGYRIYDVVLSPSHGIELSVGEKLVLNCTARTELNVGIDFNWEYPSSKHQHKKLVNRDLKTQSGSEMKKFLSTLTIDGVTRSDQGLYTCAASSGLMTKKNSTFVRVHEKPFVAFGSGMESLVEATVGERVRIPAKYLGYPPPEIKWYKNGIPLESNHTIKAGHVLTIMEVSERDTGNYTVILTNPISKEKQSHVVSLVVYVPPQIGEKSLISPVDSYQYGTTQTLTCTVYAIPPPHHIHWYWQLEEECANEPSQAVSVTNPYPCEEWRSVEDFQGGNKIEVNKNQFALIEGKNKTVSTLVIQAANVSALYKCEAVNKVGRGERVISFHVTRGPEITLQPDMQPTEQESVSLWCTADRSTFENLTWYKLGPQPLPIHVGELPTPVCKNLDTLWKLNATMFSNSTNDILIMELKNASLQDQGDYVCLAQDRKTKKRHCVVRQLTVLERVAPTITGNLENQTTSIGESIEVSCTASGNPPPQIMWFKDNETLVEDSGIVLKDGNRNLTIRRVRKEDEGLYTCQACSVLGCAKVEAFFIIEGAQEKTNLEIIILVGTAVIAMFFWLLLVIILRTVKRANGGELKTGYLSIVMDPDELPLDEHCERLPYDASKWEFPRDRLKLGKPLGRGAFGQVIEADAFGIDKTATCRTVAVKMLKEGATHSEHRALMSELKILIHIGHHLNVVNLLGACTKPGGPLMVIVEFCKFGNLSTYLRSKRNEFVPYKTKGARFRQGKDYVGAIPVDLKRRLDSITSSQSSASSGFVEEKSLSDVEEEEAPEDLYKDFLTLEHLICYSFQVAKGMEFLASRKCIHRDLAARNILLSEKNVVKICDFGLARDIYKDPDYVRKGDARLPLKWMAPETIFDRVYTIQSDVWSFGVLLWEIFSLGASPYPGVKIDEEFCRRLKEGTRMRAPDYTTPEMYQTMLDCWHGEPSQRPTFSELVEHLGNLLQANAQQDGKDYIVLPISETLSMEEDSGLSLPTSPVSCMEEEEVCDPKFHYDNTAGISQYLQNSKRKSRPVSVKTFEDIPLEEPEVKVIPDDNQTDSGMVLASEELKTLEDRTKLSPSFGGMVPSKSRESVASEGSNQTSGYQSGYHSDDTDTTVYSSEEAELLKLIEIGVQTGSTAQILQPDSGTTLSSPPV
Sequence of Proto-oncogene tyrosine-protein kinase Src (Homo sapiens) (P12931 2-536 limits assumed): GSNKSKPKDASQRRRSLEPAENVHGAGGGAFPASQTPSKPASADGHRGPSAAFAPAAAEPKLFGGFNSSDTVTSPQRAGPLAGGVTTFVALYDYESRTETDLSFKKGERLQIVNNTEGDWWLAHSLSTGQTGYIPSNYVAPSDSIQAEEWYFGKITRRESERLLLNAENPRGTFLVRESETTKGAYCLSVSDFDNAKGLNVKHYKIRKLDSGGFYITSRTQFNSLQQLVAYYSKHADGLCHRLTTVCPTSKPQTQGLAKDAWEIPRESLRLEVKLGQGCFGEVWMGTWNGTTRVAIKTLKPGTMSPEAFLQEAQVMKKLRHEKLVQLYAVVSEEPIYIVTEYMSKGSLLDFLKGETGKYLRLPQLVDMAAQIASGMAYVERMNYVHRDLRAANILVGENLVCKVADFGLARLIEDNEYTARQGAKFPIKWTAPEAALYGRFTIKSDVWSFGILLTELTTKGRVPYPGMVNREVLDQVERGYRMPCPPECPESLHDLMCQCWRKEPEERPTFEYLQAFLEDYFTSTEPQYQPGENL
Sequence of Vascular endothelial growth factor receptor 1 (Homo sapiens) (P17948 whole entry, the tested form may be a part): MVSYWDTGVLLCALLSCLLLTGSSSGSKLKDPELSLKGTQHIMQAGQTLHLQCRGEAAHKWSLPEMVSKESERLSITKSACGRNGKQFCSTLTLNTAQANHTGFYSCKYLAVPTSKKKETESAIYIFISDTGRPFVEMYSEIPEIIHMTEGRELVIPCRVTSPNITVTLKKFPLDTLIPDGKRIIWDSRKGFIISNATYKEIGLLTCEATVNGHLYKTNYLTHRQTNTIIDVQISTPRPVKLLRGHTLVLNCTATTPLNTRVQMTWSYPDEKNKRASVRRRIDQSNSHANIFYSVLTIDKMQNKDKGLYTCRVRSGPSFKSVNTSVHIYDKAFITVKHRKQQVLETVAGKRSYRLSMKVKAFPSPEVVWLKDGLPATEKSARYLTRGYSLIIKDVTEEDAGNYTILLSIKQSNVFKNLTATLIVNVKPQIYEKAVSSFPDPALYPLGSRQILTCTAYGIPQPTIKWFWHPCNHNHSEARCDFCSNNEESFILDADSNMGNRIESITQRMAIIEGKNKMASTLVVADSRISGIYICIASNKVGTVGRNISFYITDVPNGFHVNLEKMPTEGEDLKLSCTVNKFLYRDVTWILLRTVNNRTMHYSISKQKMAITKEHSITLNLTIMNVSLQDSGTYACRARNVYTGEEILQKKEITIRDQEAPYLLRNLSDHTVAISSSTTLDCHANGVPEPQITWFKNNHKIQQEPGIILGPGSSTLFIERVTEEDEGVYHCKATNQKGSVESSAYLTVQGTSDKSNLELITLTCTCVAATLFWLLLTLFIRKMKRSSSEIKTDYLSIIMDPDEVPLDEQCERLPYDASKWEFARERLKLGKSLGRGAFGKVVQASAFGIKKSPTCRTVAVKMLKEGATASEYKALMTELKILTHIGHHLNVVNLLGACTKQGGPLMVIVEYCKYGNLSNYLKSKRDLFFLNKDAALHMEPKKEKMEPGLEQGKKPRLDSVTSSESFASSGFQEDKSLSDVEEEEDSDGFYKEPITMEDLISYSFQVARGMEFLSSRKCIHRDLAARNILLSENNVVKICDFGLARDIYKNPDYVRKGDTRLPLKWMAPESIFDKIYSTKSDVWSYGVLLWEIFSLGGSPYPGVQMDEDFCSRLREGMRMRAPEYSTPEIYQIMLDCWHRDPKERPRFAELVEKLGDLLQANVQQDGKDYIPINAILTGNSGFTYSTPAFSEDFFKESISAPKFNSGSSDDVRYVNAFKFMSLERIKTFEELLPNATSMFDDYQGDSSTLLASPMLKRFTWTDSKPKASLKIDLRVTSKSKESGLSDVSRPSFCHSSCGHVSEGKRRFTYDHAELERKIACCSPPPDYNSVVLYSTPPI

For the compound `CCCCN(C)c1ccc(/N=N/c2ncc([N+](=O)[O-])s2)c(C)c1`, the Selectivity in assay [1] was 1; in assay [2], > 130; in assay [3], > 130; in assay [4], > 130; in assay [5], > 130.

By IC50 is commonly meant the concentration that inhibits the measured activity by half. A high value points to weaker potency in that assay. As for `Brc1cccc(Nc2ncc(-c3ccccc3)s2)n1`, the Selectivity amounted to 3 in assay [1]; 12 in assay [2]; 0.3 in assay [7]; 1620 in assay [3]; 400 in assay [4]; 840 in assay [5]. In assay [6], this compound had an IC50 of 0.014 µM.

The compound `COc1ccnc(Nc2ncc(-c3ccccc3)s2)c1` returned a half-inhibitory concentration (IC50) in assay [6] of 0.011 µM.

As for `c1ccc(-c2cnc(Nc3ccncc3)s2)cc1`, in assay [6], the IC50 turned out to be 0.259 µM.

Take `COc1cccc(Nc2ncc(-c3ccccc3)s2)n1`: in assay [6], the concentration for half-maximal inhibition (IC50) amounted to 0.003 µM.

In assay [6], `Brc1cnc(Nc2ccccn2)s1` had an IC50 of 0.071 µM. This IC50 lies about 24-fold higher than the previous one.

`COc1cccnc1Nc1ncc(-c2ccccc2)s1` gave an IC50 in assay [6] of 0.046 µM.

As for `Cc1cccnc1Nc1ncc(-c2ccccc2)s1`, the Selectivity is 3 in assay [1]; 16 in assay [2]; 1 in assay [7]; 820 in assay [3]; 200 in assay [4]; 1200 in assay [5]. In addition, it took 0.013 µM to reach half-maximal inhibition in assay [6] (IC50).

`Cc1cccc(Nc2ncc(-c3ccccc3)s2)n1`: the Selectivity in assay [1] was found to be 3; in assay [2], 8; in assay [7] it was 0.3; in assay [3] it was 600; in assay [4], 210; in assay [5], 760. In assay [6], half-maximal inhibition (IC50) was put at 0.01 µM.

`Cc1ccc(Nc2ncc(-c3ccccc3)s2)nc1`: the Selectivity in assay [1] amounted to 1; in assay [2], 5; in assay [7], 0.3; in assay [3], 220; in assay [4] it was 70; in assay [5] it was 570. For the same compound, in assay [6], the IC50 was 0.019 µM.

Turning to `Clc1ccc(Nc2ncc(-c3ccccc3)s2)nc1`, the Selectivity in assay [1] was 1; in assay [2] it was 6; in assay [7] it was 0.1; in assay [3], > 580; in assay [4], > 580; in assay [5] it was > 580. Also, in assay [6], the IC50 was determined as 0.035 µM.

`Cc1cnc(Nc2ccccn2)s1`: in assay [6], it took 1.27 µM to reach half-maximal inhibition (IC50).

Regarding `Clc1cnc(Nc2ccccn2)s1`, in assay [6], it took 0.194 µM to reach half-maximal inhibition (IC50).

As for `N#Cc1cnc(Nc2ccccn2)s1`, the Selectivity in assay [1] is 4; in assay [2] it was 30; in assay [7], 68; in assay [3] it was 214; in assay [4], 107; in assay [5], 678. For the same compound, the IC50 in assay [6] turned out to be 0.036 µM.

Turning to `c1ccc(-c2cnc(Nc3ccccn3)o2)cc1`, the IC50 in assay [6] turned out to be 1.88 µM. In other words, the single-digit micromolar range.

As for `c1ccc(Nc2ncc(-c3ccccc3)s2)cc1`, inhibition in assay [6] was half-maximal at 0.124 µM (IC50).

Turning to `O=C(Nc1ncc(-c2ccccc2)s1)c1ccccc1`, the Selectivity in assay [1] is 1; in assay [2], 4; in assay [3], 72; in assay [4], 14; in assay [5] it was > 240.

As to `Cc1ccnc(Nc2ncc(-c3ccccc3)s2)c1`, the Selectivity in assay [1] amounted to 2; in assay [2] it was 7; in assay [7], 0.5; in assay [3] it was 220; in assay [4] it was 50; in assay [5], 190. This compound returned an IC50 in assay [6] of 0.006 µM.
